Literature values in patent publication US20210135109A1, “ACCELERATED THERMAL CROSSLINKING OF PVDF-HFP VIA ADDITION OF ORGANIC BASES, AND THE USAGE OF CROSSLINKED PVDF-HFP AS GATE DIELECTRIC MATERIAL FOR OTFT DEVICES” (priority 2017, published 2021).

Settings: water (measured in water unless otherwise specified)

**Q.** Which “pKa (25° C., 1 atm)” value does the source give for NCCCCCCN [HMDA, Hexamethylenediamine] here?
**A.** 10.92 ± 0.10
